What follows are molecules tested on ring stage parasites (assay: Parasite growth potency assay, 72 hours, LDH readout). Settings: 72 h, parasite growth measured by LDH assay after 72 hours at 37° C.; 0.7% rings, 2% haematocrit; read-out: EC50.
Format: cell-based
Procedure, shortened: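 Parasite growth was quantified by LDH assay after a −80 °C freeze-thaw. Before that, compound was incubated for 72 h at 37 °C under humidified gas with ring-stage cultures adjusted to 0.7% parasitemia and 2% haematocrit in serum- and albumax-supplemented RPMI-Hepes.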
For N=C1N[C@@](CC2CC2)(c2ccccc2)CC(=O)N1Cc1cccc(C(=O)N[C@H]2CCOc3ccccc32)c1 [Example 6A, [(4R)-1-[[3-[[(4S)-chroman-4-yl]carbamoyl]phenyl]methyl]-4-(cyclopropylmethyl)-6-oxo-4-phenyl-hexahydropyrimidin-2-ylidene]ammonium; 2,2,2-trifluoroacetate], the EC50 was 58.8 nM. With N=C1N[C@@](CC2CC2)(c2ccccc2)CC(=O)N1Cc1cccc(C(=O)N[C@@H]2CCOc3ccccc32)c1 [Example 6B, [(4R)-1-[[3-[[(4R)-chroman-4-yl]carbamoyl]phenyl]methyl]-4-(cyclopropylmethyl)-6-oxo-4-phenyl-hexahydropyrimidin-2-ylidene]ammonium; 2,2,2-trifluoroacetate] the EC50 was 83.9 nM. C[C@H](c1cccc(C(=O)N[C@H]2CCOc3ccccc32)c1)N1C(=N)N[C@@](CC2CC2)(c2ccccc2)CC1=O [Example 7, [(4R)-1-[1-[3-[[(4S)-chroman-4-yl]carbamoyl]phenyl]ethyl]-4-(cyclopropylmethyl)-6-oxo-4-phenyl-hexahydropyrimidin-2-ylidene]ammonium; 2,2,2-trifluoroacetate] showed an EC50 of 39.2 nM. Work on N=C1N[C@@](CC2CC2)(c2ccccc2)CC(=O)N1[C@H](c1cccnc1)c1cccc(C(=O)N[C@H]2CCOc3ccccc32)c1 [Example 8, [(4R)-1-[[3-[[(4S)-chroman-4-yl]carbamoyl]phenyl]-pyridin-1-ium-3-yl-methyl]-4-(cyclopropylmethyl)-6-oxo-4-phenyl-hexahydropyrimidin-2-ylidene]ammonium; 2,2,2-trifluoroacetate] yielded an EC50 of 4.2 nM. CC(C)[C@]1(C)CC(=O)N([C@H](c2ccccc2)c2cccc(C(=O)N[C@H]3CCOc4ccccc43)c2)C(=N)N1 [Example 9A, [(4S)-1-[(R)-[3-[[(4S)-chroman-4-yl]carbamoyl]phenyl]-phenyl-methyl]-4-isopropyl-4-methyl-6-oxo-hexahydropyrimidin-2-ylidene]ammonium; 2,2,2-trifluoroacetate] gave an EC50 of 0.5 nM. CC(C)[C@]1(C)CC(=O)N([C@H](c2ccccc2)c2cccc(C(=O)N[C@@H]3CCOc4ccccc43)c2)C(=N)N1 [Example 9B, [(4S)-1-[(R)-[3-[[(4R)-chroman-4-yl]carbamoyl]phenyl]-phenyl-methyl]-4-isopropyl-4-methyl-6-oxo-hexahydropyrimidin-2-ylidene]ammonium; 2,2,2-trifluoroacetate] gave an EC50 of 19.2 nM. In the case of CC(C)[C@]1(C)CC(=O)N(Cc2cccc(C(=O)N[C@@H]3c4ccccc4C[C@H]3O)c2)C(=N)N1 [Example 10, [(4S)-1-[[3-[[(1R,2R)-2-hydroxyindan-1-yl]carbamoyl]phenyl]methyl]-4-isopropyl-4-methyl-6-oxo-hexahydropyrimidin-2-ylidene]ammonium; 2,2,2-trifluoroacetate], the EC50 is reported as 7.9 nM. CCC1(CC)CC(=O)N(Cc2cccc(C(=O)N[C@H]3CCOc4ccccc43)c2)C(=N)N1 [Example 11, [1-[[3-[[(4S)-chroman-4-yl]carbamoyl]phenyl]methyl]-4,4-diethyl-6-oxo-hexahydropyrimidin-2-ylidene]ammonium; 2,2,2-trifluoroacetate] gave an EC50 of 1.5 nM. CCC1(CC)CC(=O)N(Cc2cc(F)cc(C(=O)N[C@H]3CCOc4ccccc43)c2)C(=N)N1 [Example 12, [1-[[3-[[(4S)-chroman-4-yl]carbamoyl]-5-fluoro-phenyl]methyl]-4,4-diethyl-6-oxo-hexahydropyrimidin-2-ylidene]ammonium; 2,2,2-trifluoroacetate] was tested, and the EC50 was 1.4 nM. For CCC[C@H](c1cccc(C(=O)N[C@H]2CCOc3ccccc32)c1)N1C(=N)NC(CC)(CC)CC1=O [Example 13A, [1-[1-[3-[[(4S)-chroman-4-yl]carbamoyl]phenyl]butyl]-4,4-diethyl-6-oxo-hexahydropyrimidin-2-ylidene]ammonium; 2,2,2-trifluoroacetate], the EC50 was 0.3 nM. In the case of CCC[C@@H](c1cccc(C(=O)N[C@H]2CCOc3ccccc32)c1)N1C(=N)NC(CC)(CC)CC1=O [Example 13B, [1-[1-[3-[[(4S)-chroman-4-yl]carbamoyl]phenyl]butyl]-4,4-diethyl-6-oxo-hexahydropyrimidin-2-ylidene]ammonium; 2,2,2-trifluoroacetate], the EC50 is reported as 43.8 nM. CCC1(CC)CC(=O)N([C@H](CC(C)C)c2cccc(C(=O)N[C@H]3CCOc4ccccc43)c2)C(=N)N1 [Example 14A, [1-[1-[3-[[(4S)-chroman-4-yl]carbamoyl]phenyl]-3-methyl-butyl]-4,4-diethyl-6-oxo-hexahydropyrimidin-2-ylidene]ammonium; 2,2,2-trifluoroacetate] gave an EC50 of 0.2 nM. CCC1(CC)CC(=O)N([C@@H](CC(C)C)c2cccc(C(=O)N[C@H]3CCOc4ccccc43)c2)C(=N)N1 [Example 14B, [1-[1-[3-[[(4S)-chroman-4-yl]carbamoyl]phenyl]-3-methyl-butyl]-4,4-diethyl-6-oxo-hexahydropyrimidin-2-ylidene]ammonium; 2,2,2-trifluoroacetate] was tested, and the EC50 was 55 nM. CCC1(CC)CC(=O)N(Cc2cccc(C(=O)N[C@@H]3c4ccccc4C[C@H]3O)c2)C(=N)N1 [Example 15, [4,4-diethyl-1-[[3-[[(1R,2R)-2-hydroxyindan-1-yl]carbamoyl]phenyl]methyl]-6-oxo-hexahydropyrimidin-2-ylidene]ammonium; 2,2,2-trifluoroacetate] showed an EC50 of 2.6 nM. CCC1(CC)CC(=O)N([C@H](c2ccccc2)c2cccc(C(=O)N[C@@H]3c4ccccc4C[C@H]3O)c2)C(=N)N1 [Example 16, [4,4-diethyl-1-[[3-[[(1R,2R)-2-hydroxyindan-1-yl]carbamoyl]phenyl]-phenyl-methyl]-6-oxo-hexahydropyrimidin-2-ylidene]ammonium; 2,2,2-trifluoroacetate] was tested, and the EC50 was 0.3 nM. For N=C1N[C@@](CC2CC2)(c2ccccc2)CC(=O)N1Cc1cccc(C(=O)N[C@@H]2c3ccccc3C[C@H]2O)c1 [Example 17, [(4R)-4-(cyclopropylmethyl)-1-[[3-[[(1R,2R)-2-hydroxyindan-1-yl]carbamoyl]phenyl]methyl]-6-oxo-4-phenyl-hexahydropyrimidin-2-ylidene]ammonium; 2,2,2-trifluoroacetate], the EC50 was 3.7 nM. CC(C)[C@]1(C)CC(=O)N(Cc2cccc(C(=O)N[C@@H]3c4ccccc4C[C@@H]3O)c2)C(=N)N1 [Example 18, [(4S)-1-[[3-[[(1R,2S)-2-hydroxyindan-1-yl]carbamoyl]phenyl]methyl]-4-isopropyl-4-methyl-6-oxo-hexahydropyrimidin-2-ylidene]ammonium; 2,2,2-trifluoroacetate] showed an EC50 of 21.5 nM. CCC1(CC)CC(=O)N([C@H](COC)c2cccc(C(=O)N[C@H]3CCOc4ccccc43)c2)C(=N)N1 [Example 19, [1-[1-[3-[[(4S)-chroman-4-yl]carbamoyl]phenyl]-2-methoxy-ethyl]-4,4-diethyl-6-oxo-hexahydropyrimidin-2-ylidene]ammonium; 2,2,2-trifluoroacetate] was tested, and the EC50 was 0.6 nM. CCC1(CC)CC(=O)N(Cc2cccc(C(=O)N[C@H]3CCOc4ccccc43)c2F)C(=N)N1 [Example 20, [1-[[3-[[(4S)-chroman-4-yl]carbamoyl]-2-fluoro-phenyl]methyl]-4,4-diethyl-6-oxo-hexahydropyrimidin-2-ylidene]ammonium; 2,2,2-trifluoroacetate] was tested, and the EC50 was 10.9 nM.

Reference: patent publication US12629374B2, “Antimalarial agents” (Merck Sharp & Dohme LLC, priority 2020, dated 2026)
